Measurements: patent US20060134001A1, “Conjugated infrared fluorescent substances for detection of cell death” (priority 2002, published 2006)

Assays:
[1] = tested on: mitochondria and/or endoplasmic reticulum; experiment: Subcellular partitioning of dye; format: cell-based; details: concentration-dependent
[2] = In vivo early half-life of dye
[3] = tested on: vasculature of the heart; experiment: Near-infrared fluorescence imaging of heart vasculature with vascular contrast agent after LAD artery ischemia; format: in vivo; details: rat, 12.5 nmol injected, 24 hours after LAD artery ischemia; compared with 2,3,5-triphenyltetrazolium chloride staining
Text: The otherwise invisible near-infrared fluorescence from indocyanine green has been pseudo-colored white prior to superimposition on the color video (anatomic) image. […] In pseudo-colored magenta are the red fluorescent microbeads injected during initial ischemia. […] The area of the heart internal to this “ring” of perfusion is termed the “area at risk”, i.e., the area of myocardium that had no blood flow during LAD ligation. […] Finally, the near-infrared fluorescence signal from injection of 25 μg of human annexin V covalently conjugated with IRDye78 (a near-infrared fluorophore) is shown pseudo-colored in green.

[4] = Solubility of dye in blood; details: small molecule form
[5] = human annexin V; read-out: affinity (kd) for phosphatidylserine (PS); cited from earlier work
[6] = cited from earlier work
[7] = tested on: apoptotic and/or necrotic cells; experiment: Near-infrared fluorescence imaging of labeled annexin V in rat heart after LAD artery ischemia/reperfusion; format: in vivo; details: 25 μg injected, imaged 24 hours after 20 minutes LAD ligation and reperfusion
Experimental: A branch of the left anterior descending (LAD) artery of the rat heart was ligated with a silk suture. During ligation, the aorta was cross-clamped and 10 μm red fluorescent microbeads were injected into the ventricle. […] After 20 minutes of ligation, the suture was removed, and the heart was permitted to re-perfuse.
The otherwise invisible near-infrared fluorescence from indocyanine green has been pseudo-colored white prior to superimposition on the color video (anatomic) image. […] In pseudo-colored magenta are the red fluorescent microbeads injected during initial ischemia. This area was well perfused during ischemia. The area of the heart internal to this “ring” of perfusion is termed the “area at risk”, i.e., the area of myocardium that had no blood flow during LAD ligation. The area of avascularity/infarct identified with indocyanine green is contained within the area at risk. Finally, the near-infrared fluorescence signal from injection of 25 μg of human annexin V covalently conjugated with IRDye78 (a near-infrared fluorophore) is shown pseudo-colored in green. The green areas, thus, represent apoptotic and/or necrotic cells, i.e., those areas within the area at risk that have actually succumbed to the ischemia. […] Presumably, this area was supplied by either diffusion or smaller collateral vessels fed by the well-perfused area.

CN1C(=CC=C2CCCC(C=CC3=[N+](C)c4ccccc4C3(C)C)=C2Cl)C(C)(C)c2ccccc21.[O-][Cl+3]([O-])([O-])[O-] [IR-786]
partitioning into organelles [1]: partitions efficiently into mitochondria and/or endoplasmic reticulum

CC1(C)C(/C=C/C=C/C=C/C=C2\N(CCCCS(=O)(=O)O)c3ccc4ccccc4c3C2(C)C)=[N+](CCCCS(=O)(=O)[O-])c2ccc3ccccc3c21 [Indocyanine green, indocyanine green]
in vivo early half-life [2]: shorter half-life | vascular staining of ischemic heart [3]: reveals an area of avascularity that corresponds to infarcted tissue | solubility in blood [4]: somewhat less soluble in blood

Human annexin V: human annexin V, molecular weight 36 kd, binds phosphatidylserine; targeting moiety
Kd [5]: 7 nM | dose at which pharmacological effects (anti-coagulant effects) begin ([6]; in vivo): greater than 300 μg protein/kg | pharmacologic or toxic side effects at tracer doses ([6]; tracer doses, e.g. 10 μg protein/kg to 50 μg protein/kg, animal or human subjects): no reported pharmacologic or toxic side effects

human annexin V covalently conjugated with IRDye78: annexin V reacted under aqueous conditions with the N-hydroxysuccinimide ester of IRDye78, a near-infrared fluorophore
near-infrared fluorescence signal localisation in ischemic heart [7]: several areas of infarcted myocardium within the area at risk
